According to patent US7122624B2, “Parathyroid hormone receptor ligands” (The United States of America as represented by the …, priority 1999, dated 2006):
Where two headings read alike, the source gives them in different places. Non-standard residues stand in square brackets, D forms with d. Residues, ends and D or L forms follow the SMILES beside them. Nle = CCCC[C@H](N)C(=O)O

Tests used:
rat PTH2 receptor = biological target: T1, rat PTH2 receptor (Rattus norvegicus, UniProt P70555); assay: cAMP accumulation in COS-7 cells transiently expressing the rat PTH2 receptor; assay type: cell-based
T1 construct: expressed in transfected cells; host or cells: COS-7 (transient)
T1 sequence (P70555 25-546): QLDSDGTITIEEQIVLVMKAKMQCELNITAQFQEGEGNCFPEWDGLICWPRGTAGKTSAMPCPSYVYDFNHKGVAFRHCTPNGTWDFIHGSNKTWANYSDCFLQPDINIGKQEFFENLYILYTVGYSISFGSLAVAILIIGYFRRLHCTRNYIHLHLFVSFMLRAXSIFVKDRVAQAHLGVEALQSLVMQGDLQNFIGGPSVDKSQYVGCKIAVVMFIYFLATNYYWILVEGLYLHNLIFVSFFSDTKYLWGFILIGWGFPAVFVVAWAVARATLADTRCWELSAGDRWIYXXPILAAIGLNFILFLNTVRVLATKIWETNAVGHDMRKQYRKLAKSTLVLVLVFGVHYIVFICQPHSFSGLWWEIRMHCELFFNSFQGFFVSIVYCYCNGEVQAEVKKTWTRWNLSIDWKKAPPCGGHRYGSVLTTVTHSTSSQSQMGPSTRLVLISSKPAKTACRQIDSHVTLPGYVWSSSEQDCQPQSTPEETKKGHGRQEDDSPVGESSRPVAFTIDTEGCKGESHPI
Experimental: To express rat PTH2 receptor in cell culture, a rat hypothalamus cDNA library was prepared in the vector CDM7 amp as described. […] A clone was isolated from a single positive pool by colony hybridization using the same ^32P labeled probe.
(§1) Cell culture supplies were obtained from Life Technologies (Frederick, Md.) except for fetal bovine serum which was from Sigma (St. Louis, Mo.).
(§2) The constructs containing the cDNA sequences of the human PTH2 receptor and β-galactosidase have been previously described.
(§3) All peptides were purchased from either Bachem (Torrance, Calif.) or Peninsula Laboratories (Belmont, Calif.). The letters ‘b,’ ‘r’ and ‘h’ designate the peptide sequence as bovine, rat and human, respectively. […] [α-^32P]dCTP was purchased from ICN Biomedicals (Costa Mesa, Calif.). Bovine hypothalamic extract was prepared by acid extraction, gel-filtration and reverse-phase HPLC as previously described. […] Antagonist inhibitory potency was examined by measuring the concentration-dependence of rPTH(1–34)-stimulated cAMP accumulation in the presence and absence of antagonist.
(§4) Statistical comparison of two sample means was evaluated using the two-tailed Student's t-test. […] Antagonist inhibitory potency was quantified using the pA2, value, the negative logarithm of the concentration of antagonist that produces a two-fold decrease of agonist EC50. This was calculated using the following equation: pA2=((EC50/EC50′)−1)−log [antagonist]

PTH2 receptor [1] = biological target: T2, PTH2 receptor (Homo sapiens, UniProt P49190); assay: cAMP accumulation in COS-7 cells transiently expressing the human PTH2 receptor; assay type: cell-based; set-up: expressed in transfected cells; host or cells: COS-7 (transient)
T2 sequence (P49190 25-550): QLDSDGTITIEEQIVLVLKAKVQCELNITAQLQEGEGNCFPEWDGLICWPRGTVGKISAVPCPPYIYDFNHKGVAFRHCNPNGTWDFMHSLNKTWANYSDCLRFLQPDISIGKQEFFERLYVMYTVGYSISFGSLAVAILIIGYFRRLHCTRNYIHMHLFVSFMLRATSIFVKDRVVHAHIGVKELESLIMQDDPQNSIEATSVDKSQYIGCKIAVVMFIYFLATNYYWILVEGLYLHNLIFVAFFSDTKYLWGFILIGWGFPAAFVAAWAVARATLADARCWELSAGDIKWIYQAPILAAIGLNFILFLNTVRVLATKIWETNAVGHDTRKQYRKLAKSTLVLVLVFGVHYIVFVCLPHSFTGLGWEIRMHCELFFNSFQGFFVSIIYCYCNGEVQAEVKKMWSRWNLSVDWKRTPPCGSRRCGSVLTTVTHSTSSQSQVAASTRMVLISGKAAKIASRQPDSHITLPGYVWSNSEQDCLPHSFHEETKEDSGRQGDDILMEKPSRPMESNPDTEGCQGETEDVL
Text: as §1, §2, §3, §4

PTH2 receptor [2] = biological target: T2, PTH2 receptor; assay: Radioligand displacement binding to HEK293 cell membranes expressing the human PTH2 receptor
Experimental: (§5) In these assays the binding of a range of concentrations of an unlabeled ligand was measured by displacement of radioligand binding. Three methods were employed. An assay employing centrifugation to separate bound and free radioligand was used to accurately measure ligand binding parameters. A higher-throughput method employing rapid filtration was used to generate comparative ligand binding data. […] In these assays a very low concentration of radioligand was used so that the IC50 closely approximates the ligand affinity.
(§6) In the centrifugation assay cell membranes (45–50 μg), radioligand (100,000–300,000 cpm) and unlabeled ligand were incubated in a final volume of 1 ml assay buffer (20 mM HEPES, 100 mM NaCl, 1 mM EDTA, 3 mM MgSO4 pH 7.5, supplemented with 0.3% non-fat dried milk powder, 100 μM AEBSF and 1 μg/ml bacitracin) for two hours at 21° C. Membranes were collected at 18,000×g, the surface of the pellet gently washed and the radioactivity counted as described in Examples. […] Less than 20% of the total radioligand added was bound within the membrane pellet. […] (Greater than 50% of the total radioligand was bound if all the membrane in the incubation was from transfected cells).
(§7) For inhibition of radioligand binding, y is the cpm bound at a given unlabeled ligand concentration, min is non-specific binding (measured in the presence of a high concentration of the unlabeled version of the radiolabeled ligand) and max is total binding (measured in the absence of unlabeled ligand).
(§8) Binding was measured in the presence of 10 μM GTPγS to minimize complications arising from receptor-G-protein coupling, such as pseudo-irreversible binding of the agonist radioligand.
(§9) A similar assay design was used for the PTH1 and PTH2 receptor, in which radiolabeled agonist binding was displaced by the unlabeled ligands in the presence of 10 μM GTPγS. Briefly, cell membranes (45 μg), radioligand (50,000 cpm) and unlabeled ligand were incubated in a final volume of 1 ml assay buffer (20 mM HEPES, 100 mM NaCl, 1 mM EDTA, 3 mM MgSO4 pH 7.5, supplemented with 0.3% non-fat dried milk powder, 100 μM (4-(2-aminoethyl))-benzenesulfonylflouride (AEBSF), 1 μg/ml bacitracin and 10 μM GTPγS) for two hours at 21° C. Membranes were collected at 18,000×g, the surface of the pellet gently washed and the radioactivity counted as described in Examples. […] To prevent greater than 20% of the total radioligand added from binding to the membranes, 15–20 μg of membranes from transfected cells were used, made up to 45 μg with membranes from non-transfected cells.

human PTH1 receptor [3] = biological target: T3, human PTH1 receptor (Homo sapiens, UniProt Q03431); assay: cAMP accumulation in COS-7 cells transiently expressing the human PTH1 receptor; conditions: 20% human plasma
T3 sequence (Q03431 27-593): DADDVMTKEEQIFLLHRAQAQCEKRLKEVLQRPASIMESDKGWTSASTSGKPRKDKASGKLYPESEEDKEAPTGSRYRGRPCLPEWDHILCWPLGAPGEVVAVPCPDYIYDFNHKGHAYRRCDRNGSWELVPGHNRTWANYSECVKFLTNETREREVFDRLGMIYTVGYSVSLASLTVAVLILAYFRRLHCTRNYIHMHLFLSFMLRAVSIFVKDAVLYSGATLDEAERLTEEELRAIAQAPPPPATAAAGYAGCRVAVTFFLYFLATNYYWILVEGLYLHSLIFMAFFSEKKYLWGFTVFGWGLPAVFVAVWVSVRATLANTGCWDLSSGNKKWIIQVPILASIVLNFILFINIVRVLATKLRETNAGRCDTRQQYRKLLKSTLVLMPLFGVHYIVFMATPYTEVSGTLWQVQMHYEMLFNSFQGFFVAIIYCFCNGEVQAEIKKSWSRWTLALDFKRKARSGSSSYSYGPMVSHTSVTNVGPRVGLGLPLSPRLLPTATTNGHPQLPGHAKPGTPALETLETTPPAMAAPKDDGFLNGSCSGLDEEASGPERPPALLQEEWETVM
Experimental: COS-7 cells were grown as previously described in Clark et al. For cAMP accumulation assays COS-7 cells were transfected as previously described in Clark et al. except that transfections were performed in 10 cm tissue culture dishes using 10 μg of plasmid DNA. The cells were transferred following trypsinization to 96-well plates at a density of 50,000 cells/well the following day. Cells were used for cAMP accumulation assays three days after transfection.
Ligand-stimulated accumulation of cAMP was measured as described in Examples, using a radioimmunoassay to quantify cAMP (Clark et al., supra).
Slightly different procedures were used depending on the experimental paradigm. […] This buffer was removed and replaced with 40 μl fresh buffer. Test agents were added in a volume of 10 μl and the cells incubated for an additional 40 min at 37° C. The assay was then terminated by the addition of 50 μl 0.1 N HCl, 0.1 mM CaCl2. […] After a further 40 minutes at 37° C. the assay was terminated as described above. […] The buffer was removed and the following solutions added sequentially: 30 μl buffer containing plasma, 10 μl antagonist in buffer and 10 μl rPTH(1–34) in buffer. The cells were incubated at 37° C. for 40 minutes prior to assay termination. Human plasma was prepared by addition of EDTA to whole blood at a final concentration of 10 mM followed by centrifugation at 1,000×g for 10 minutes. The plasma supernatant was collected and stored in aliquots at −80° C. before use. cAMP was quantified using a RIA as previously described (Clark et al., supra).
For cAMP accumulation data y is the amount of cAMP produced at a given peptide concentration, min is the cAMP level in the absence of ligand, max is the maximum level produced and K is the log EC50.
The pA2 was subsequently converted to a pKB value by fixing n at unity in the linear regression analysis.

human PTH1 receptor [4] = biological target: T3, human PTH1 receptor; assay: Radioligand displacement binding to HEK293 cell membranes expressing the human PTH1 receptor; conditions: presence of 10 μM GTPγS
Experimental: as §5, §6, §7, §8, §9

[5] = rat receptor response relative to human PTH2 receptor response measured in parallel
[6] = 1 μM antagonist against rPTH(1–34)-stimulated cAMP

CCCC[C@H](NC(=O)[C@H](CO)NC(=O)[C@H](CO)NC(=O)[C@H](CC(C)C)NC(=O)[C@H](Cc1c[nH]cn1)NC(=O)[C@H](CCCCN)NC(=O)CNC(=O)[C@H](CC(C)C)NC(=O)[C@H](CC(N)=O)NC(=O)[C@H](Cc1c[nH]cn1)NC(=O)[C@H](CCCC)NC(=O)[C@H](Cc1ccccc1)NC(=O)[C@H](CCC(N)=O)NC(=O)[C@@H](NC(=O)[C@H](CCC(=O)O)NC(=O)[C@H](CO)NC(=O)[C@@H](NC(=O)[C@H](C)N)C(C)C)[C@@H](C)CC)C(=O)N[C@@H](CCC(=O)O)C(=O)N[C@@H](CCCNC(=N)N)C(=O)N[C@H](C(=O)N[C@@H](CCC(=O)O)C(=O)N[C@@H](Cc1c[nH]c2ccccc12)C(=O)N[C@@H](CC(C)C)C(=O)N[C@@H](CCCNC(=N)N)C(=O)N[C@@H](CCCCN)C(=O)N[C@@H](CCCCN)C(=O)N[C@@H](CC(C)C)C(=O)N[C@@H](CCC(N)=O)C(=O)N[C@@H](CC(=O)O)C(=O)N[C@H](C(=O)N[C@@H](Cc1c[nH]cn1)C(=O)N[C@@H](CC(N)=O)C(=O)N[C@@H](Cc1ccc(O)cc1)C(N)=O)C(C)C)C(C)C [[Nle^8,18, Tyr^34]bPTH(1-34)] (H-AVSEIQF[Nle]HNLGKHLSS[Nle]ERVEWLRKKLQDVHNY-NH2; N-terminus and C-terminus assumed)
Emax (rat PTH2 receptor; COS-7, read-out: Emax, % of response of hPTH2r to 1 μM hPTH(1-34), rat receptor response relative to human PTH2 receptor response measured in parallel): 5 ± 1%
Emax (rat PTH2 receptor; read-out: Emax, % of response of rPTH2r to 3 μM rPTH(1-34), intrinsic activity, COS-7): 19 ± 3%
Emax (PTH2 receptor [1]; read-out: Emax, % of response to 1 μM hPTH(1-34), intrinsic activity, COS-7): 76 ± 7%

CCCC[C@H](NC(=O)[C@H](CCCNC(=N)N)NC(=O)[C@H](CCC(=O)O)NC(=O)[C@@H](NC(=O)[C@H](CO)NC(=O)[C@H](C)NC(=O)[C@H](CC(C)C)NC(=O)[C@H](Cc1c[nH]cn1)NC(=O)[C@H](CCCCN)NC(=O)CNC(=O)[C@H](CC(C)C)NC(=O)[C@H](CC(N)=O)NC(=O)[C@H](Cc1c[nH]cn1)NC(=O)[C@H](CCCC)NC(=O)[C@H](CC(C)C)NC(=O)[C@H](CCC(N)=O)NC(=O)[C@@H](NC(=O)[C@H](CCC(=O)O)NC(=O)[C@H](CO)NC(=O)[C@@H](NC(=O)[C@H](C)N)C(C)C)[C@@H](C)CC)C(C)C)C(=O)N[C@@H](CCC(N)=O)C(=O)N[C@@H](Cc1c[nH]c2ccccc12)C(=O)N[C@@H](CC(C)C)C(=O)N[C@@H](CCCNC(=N)N)C(=O)N[C@@H](CCCCN)C(=O)N[C@@H](CCCCN)C(=O)N[C@@H](CC(C)C)C(=O)N[C@@H](CCC(N)=O)C(=O)N[C@@H](CC(=O)O)C(=O)N[C@H](C(=O)N[C@@H](Cc1c[nH]cn1)C(=O)N[C@@H](CC(N)=O)C(=O)N[C@@H](Cc1ccc(O)cc1)C(N)=O)C(C)C [[Nle^8,21, Tyr^34]rPTH(1–34), [Nle^8,21, Tyr^34]rPTH(1–34) amide]
IC50 (PTH2 receptor [2]): 1.1 nM
shift (increase) of IC50 produced by 10 μM GTPγS (PTH2 receptor [2]; centrifugation assay, [125I]TIP39): 1.5 fold

PTHrP(1-34)
Emax, % of response of rPTH2r to 3 μM rPTH(1-34) (rat PTH2 receptor; intrinsic activity, COS-7): 14 ± 1%
Emax, % of response of hPTH2r to 1 μM hPTH(1-34) (rat PTH2 receptor; [5]): 7 ± 3%
higher potency for the rat receptor than the human receptor (rat PTH2 receptor; rat vs human PTH2 receptor EC50): 14 fold
Emax, % of response to 1 μM hPTH(1-34) (PTH2 receptor [1]; intrinsic activity, COS-7): 25 ± 3%

PTHrP(7–34) amide
effect of human plasma on antagonist potency (human PTH1 receptor [3]): did not reduce the antagonist potency

[D-Tryp^12, Tyr^34]bPTH(7–34) amide [[D-Tryp^12, Tyr^34]PTH(7–34)]
difference of IC50 relative to TIP(7–39) (human PTH1 receptor [4]): 7.3 fold
effect of human plasma on antagonist potency (human PTH1 receptor [3]): did not reduce the antagonist potency

[Nle^8,18, D-Tryp^12, Tyr^34]bPTH(7–34) amide
pA2 (rat PTH2 receptor; [6]): 6.5±0.2
pA2 as concentration (rat PTH2 receptor; [6]): 310 nM
basal cAMP accumulation, % of basal response in the absence of antagonist (rat PTH2 receptor; 1 μM antagonist, no rPTH(1–34)): 104±11%
pA2 (PTH2 receptor [1]; [6]): 6.5±0.1
pA2 as concentration (PTH2 receptor [1]; [6]): 320 nM
basal cAMP accumulation, % of basal response in the absence of antagonist (PTH2 receptor [1]; 1 μM antagonist, no rPTH(1–34)): 110±16%

hPTH(1-34)
Emax, % of response of rPTH2r to 3 μM rPTH(1-34) (rat PTH2 receptor; intrinsic activity, COS-7): 43 ± 4%
Emax, % of response of hPTH2r to 1 μM hPTH(1-34) (rat PTH2 receptor; [5]): 22 ± 7%
Emax, % of response to 1 μM hPTH(1-34) (PTH2 receptor [1]; intrinsic activity, COS-7): 100%

hPTH(1-84)
Emax, % of response of rPTH2r to 3 μM rPTH(1-34) (rat PTH2 receptor; intrinsic activity, COS-7): 42 ± 5%
Emax, % of response of hPTH2r to 1 μM hPTH(1-34) (rat PTH2 receptor; [5]): 15 ± 4%
Emax, % of response to 1 μM hPTH(1-34) (PTH2 receptor [1]; intrinsic activity, COS-7): 79 ± 1%
